Test results: patent US5919761A, “Peptides for heparin and low molecular weight heparin anticoagulation reversal” (The Board of Regents of the University of Michigan, priority 1995, dated 1999)

Tests used:
[1] = test system: standard, unfractionated heparin; test: Percent reversal of standard heparin anticoagulation by variant peptides and protamine, in vivo canine study, coagulation tests; design: species or system dogs; conditions: for Percent reversal of heparin anticoagulation, ACT: dogs, heparin 150 IU/kg IV, agent 1.5 mg/kg IV over 10 seconds
Experimental: Data are expressed as a mean ±1 SD. Statistical analysis using linear regression for determination of correlation coefficients, and analysis of variance (ANOVA) or unpaired two-way Student's t-test; p<0.05 was accepted as statistically significant.
(§1) Anticoagulation reversal was assessed by a number of standard coagulation tests performed upon samples of venous blood: activated clotting time (ACT), prothrombin time (PT), activated partial thromboplastin time (aPTT), thrombin clotting time (TCT), heparin concentration by assay for FXa inhibitory activity (FXa), white cell count (WBC), and platelet counts (PLT). Measurements were made 3 minutes prior to heparin reversal (baseline) and 3 minutes and 30 minutes post-administration of the heparin reversal agent. The "Heparin" row sets forth the observed reversal as a consequence of expected heparin metabolism or degradation alone.

[2] = Platelet and white cell counts after standard heparin reversal, canine study; assay type: in vivo; conditions: dogs, 3 minutes post-reversal, resolved by about 30 minutes
Experimental: as §1

[3] = Hemodynamic studies and total toxicity score after standard heparin reversal, canine study; conditions: dogs
Experimental: As used hereinafter, the peptides will be identified by their total cationic charge value, e.g., [+8], [+16], etc.
Hemodynamic studies were conducted by measuring mean arterial pressure (MAP), heart rate (HR), and maximum percent changes in cardiac output (CO) and systemic oxygen consumption (VO2).
Total toxicity scores (TTS) were developed that reflected maximum declines in each of four parameters (MAP, CO, VO2 and HR) over the first 5 minutes after reversal, the latter being the time of expected greatest adverse hemodynamic effect. The maximum changes occurring in an individual dog over the first 5 minutes were divided by the standard deviation derived from the entire group of tested animals and the four scores were added, resulting in a TTS for each individual dog. The TTS values for each dog were then summed to obtain an average TTS and SD for each peptide studied.

[4] = test system: standard, unfractionated heparin; test: Factor Xa and IIa reversal after standard heparin, cell adhesion ligand analogs, canine study; assay type: in vivo; conditions: dogs, 3 min post administration
Experimental: Anticoagulation reversal was assessed by a number of standard coagulation tests performed upon samples of venous blood in the manner described hereinabove. Measurements were made 3 minutes prior to heparin reversal (baseline) and 3 minutes, 10 minutes, and 30 minutes post-administration of the heparin reversal agent. […] Referring to FIGS. 4a through 4d, compound [+18RGD] performs as well, or better, than n-protamine in the standard coagulation tests performed in these studies.

PR4 S3 RPVR5 PRVSR6 G2 R4 [Protamine [+21], reference compound]
Percent reversal of heparin anticoagulation, ACT ([1]; 3 min post-administration): 102% | Percent reversal of heparin anticoagulation, ACT ([1]; 30 min): 90% | Percent reversal of heparin anticoagulation, APTT ([1]; same study, 3 min): 100% | Percent reversal of heparin anticoagulation, FNa ([1]; same study, 3 min): 102% | Percent reversal of heparin anticoagulation, FXa ([1]; same study, 3 min): 101% | Percent reversal of heparin anticoagulation, PT ([1]; same study, 3 min): 84% | Percent reversal of heparin anticoagulation, TCT ([1]; same study, 3 min): 101% | Percent reversal of heparin anticoagulation, APTT ([1]; same study, 30 min): 127% | Percent reversal of heparin anticoagulation, FXa ([1]; same study, 30 min): 96% | Percent reversal of heparin anticoagulation, PT ([1]; same study, 30 min): 88% | Percent reversal of heparin anticoagulation, TCT ([1]; same study, 30 min): 100% | platelet counts [2]: thrombocytopenia | ΔHR [3]: -29 | ΔMAP ([3]; average maximum decline in first five minutes after peptide administration): -34 | average total toxicity score (TTS±SD) ([3]; first 5 minutes after reversal, more negative = more toxic): -7.0±5.2 | ΔCO ([3]; maximum percent change): -38% | ΔVO2 ([3]; maximum percent change): -35% | IIa Reversal [4]: 98% | Xa Reversal [4]: 99%
